Usually inhibition stands for the change of the read-out against control, counted positive when it falls. By IC50 is commonly meant the concentration needed to halve the response being measured. Low readings indicate higher potency, high ones lower potency.

For 22 compounds, inhibition and IC50 results are on record in US20200247800A1, “SUBSTITUTED BICYCLIC HETEROCYCLIC COMPOUNDS AS NADPH OXIDASE INHIBITORS” (Glenmark Pharmaceuticals S.A., priority 2017, published 2020).

For this assay, the target named is T1, human NOX4 (Homo sapiens, UniProt Q9NPH5).
T1 construct: expressed in transfected cells; membrane fraction used
T1 sequence (Q9NPH5 1-578): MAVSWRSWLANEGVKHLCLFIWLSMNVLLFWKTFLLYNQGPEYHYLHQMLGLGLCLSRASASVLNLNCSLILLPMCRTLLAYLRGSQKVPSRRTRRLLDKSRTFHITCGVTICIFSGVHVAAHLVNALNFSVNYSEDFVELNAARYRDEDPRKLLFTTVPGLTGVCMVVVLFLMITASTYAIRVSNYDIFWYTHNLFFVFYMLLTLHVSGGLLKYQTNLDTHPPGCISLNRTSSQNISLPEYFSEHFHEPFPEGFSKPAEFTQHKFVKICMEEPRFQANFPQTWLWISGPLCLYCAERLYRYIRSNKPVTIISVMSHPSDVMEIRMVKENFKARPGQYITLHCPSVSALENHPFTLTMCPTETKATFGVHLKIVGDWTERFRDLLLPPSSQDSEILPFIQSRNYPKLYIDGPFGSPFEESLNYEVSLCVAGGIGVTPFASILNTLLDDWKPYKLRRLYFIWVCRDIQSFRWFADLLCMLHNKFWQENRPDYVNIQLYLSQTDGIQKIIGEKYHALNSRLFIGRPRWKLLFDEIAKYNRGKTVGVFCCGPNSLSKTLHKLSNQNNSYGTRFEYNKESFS
T1 sequence (P13498 1-195 partner): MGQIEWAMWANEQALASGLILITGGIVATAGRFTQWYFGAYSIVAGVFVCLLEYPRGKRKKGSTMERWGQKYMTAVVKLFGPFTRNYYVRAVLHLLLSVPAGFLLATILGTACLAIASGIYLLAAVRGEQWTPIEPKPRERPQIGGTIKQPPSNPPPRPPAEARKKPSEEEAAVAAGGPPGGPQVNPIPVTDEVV
As to the kind of experiment: Cell free membrane based in vitro NOX4 assay: H2O2 production by membranes expressing human NOX4, measured with Amplex Red. The format is biochemical. The settings on record: for inhibition at 1 µM: 1.0 μM compound, read-out: Percentage inhibition at 1.0 μM; for inhibition at 10 µM: 10.0 μM compound, read-out: Percentage inhibition at 10.0 μM; for IC50: class symbols. A digest of the protocol:
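IC50 came from concentration-response curves fitted as % of the inhibitor-free maximum. H2O2 formation was monitored for 10 min via Amplex Red/HRP fluorescence (544/590 nm) after NADPH start. Membranes from a stable hNOX4/HEK line had 20 min exposure to inhibitor beforehand at pH 7.4.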

SMILES strings stand for the structures.

With `CS(=O)(=O)N1CCC(c2nn(C3CC3)c3[nH]c(-c4c(F)cccc4F)c(O)c(=O)c23)CC1` [Example 186, 1-Cyclopropyl-6-(2,6-difluorophenyl)-5-hydroxy-3-(1-(methylsulfonyl)piperidin-4-yl)-1H-pyrazolo[3,4-b]pyridin-4(7H)-one], the inhibition at 1 µM came out at 71.9%, the inhibition at 10 µM is 81.2% and the IC50 is greater than 150 nM.

On to `CCc1nn(C)c2[nH]c(-c3cnc(-c4ccc(F)cc4F)s3)c(O)c(=O)c12` [Example 187, 6-(2-(2,4-Difluorophenyl)thiazol-5-yl)-3-ethyl-5-hydroxy-1-methyl-1H-pyrazolo[3,4-b]pyridin-4(7H)-one], for which the inhibition at 1 µM is 77%, the inhibition at 10 µM came to 77.8% and the IC50 was in the range of 100 to 150 nM.

`Cn1nc(CO)c2c(=O)c(O)c(-c3c(F)cccc3F)[nH]c21` [Example 188, 6-(2,6-Difluorophenyl)-5-hydroxy-3-(hydroxymethyl)-1-methyl-1H-pyrazolo[3,4-b]pyridin-4(7H)-one]: the inhibition at 1 µM was found to be 96.5%, the inhibition at 10 µM was 100% and the IC50 lay within 100 to 150 nM.

Consider `Cn1nc(C2CCOCC2)c2c(=O)c(O)c(-c3c(F)cccc3F)[nH]c21` [Example 189, 6-(2,6-Difluorophenyl)-5-hydroxy-1-methyl-3-(tetrahydro-2H-pyran-4-yl)-1H-pyrazolo[3,4-b]pyridin-4(7H)-one], for which the inhibition at 1 µM is 99.2%, the inhibition at 10 µM was 98.6% and the IC50 was less than 50 nM.

As for `O=c1c(O)c(-c2c(F)cccc2F)[nH]c2c1c(C1CCOCC1)nn2C1CC1` [Example 190, 1-Cyclopropyl-6-(2,6-difluorophenyl)-5-hydroxy-3-(tetrahydro-2H-pyran-4-yl)-1H-pyrazolo[3,4-b]pyridin-4(7H)-one], the inhibition at 1 µM was determined as 93.1%, the inhibition at 10 µM amounted to 100% and the IC50 is less than 50 nM.

In the case of `Cn1nc(CN2CCOCC2)c2c(=O)c(O)c(-c3c(F)cccc3F)[nH]c21` [Example 191, 6-(2,6-difluorophenyl)-5-hydroxy-1-methyl-3-(morpholinomethyl)-1H-pyrazolo[3,4-b]pyridin-4(7H)-one], the inhibition at 1 µM turned out to be 91.2%, the inhibition at 10 µM came out at 97.8% and the IC50 was 50 to 100 nM.

Regarding `CC(C)N1CCN(Cc2nn(C)c3[nH]c(-c4c(F)cccc4F)c(O)c(=O)c23)CC1` [Example 192, 6-(2,6-Difluorophenyl)-5-hydroxy-3-((4-isopropylpiperazin-1-yl)methyl)-1-methyl-1H-pyraazolo[3,4-b]pyridin-4(7H)-one], the inhibition at 1 µM is 90.6%, the inhibition at 10 µM is 95.3% and the IC50 is 50 to 100 nM.

For the compound `Cn1nc(C2CCOCC2)c2c(=O)c(O)c(-c3ccccc3Cl)[nH]c21` [Example 193, 6-(2-Chlorophenyl)-5-hydroxy-1-methyl-3-(tetrahydro-2H-pyran-4-yl)-1H-pyrazolo[3,4-b]pyridin-4(7H)-one], the inhibition at 1 µM was 84.7%, the inhibition at 10 µM was determined as 75.4% and the IC50 was less than 50 nM.

As to `Cn1nc(C2CCN(S(C)(=O)=O)CC2)c2c(=O)c(O)c(-c3ccccc3Cl)[nH]c21` [Example 194, 6-(2-chlorophenyl)-5-hydroxy-1-methyl-3-(1-(methylsulfonyl)piperidin-4-yl)-1H-pyrazolo[3,4-b]pyridin-4(7H)-one], the inhibition at 1 µM turned out to be 98.3%, the inhibition at 10 µM was determined as 96% and the IC50 was in the range of 50 to 100 nM.

In the case of `Cn1nc(CN2CC[C@H](F)C2)c2c(=O)c(O)c(-c3c(F)cccc3F)[nH]c21` [Example 195, (S)-6-(2,6-Difluorophenyl)-3-((3-fluoropyrrolidin-1-yl)methyl)-5-hydroxy-1-methyl-1H-pyrazolo[3,4-b]pyridin-4(7H)-one], the inhibition at 1 µM is 97.7%, the inhibition at 10 µM is 100% and the IC50 was 100 to 150 nM.

`Cn1nc(CN2CCN(CC(F)(F)F)CC2)c2c(=O)c(O)c(-c3c(F)cccc3F)[nH]c21` [Example 196, 3-((4-(2,2,2-trifluoroethyl)piperazin-1-yl)methyl)-6-(2,6-difluorophenyl)-5-hydroxy-1-methyl-1H-pyrazolo[3,4-b]pyridin-4(7H)-one]: the inhibition at 1 µM came out at 100%, the inhibition at 10 µM came out at 100% and the IC50 was 100 to 150 nM.

`C[C@@H]1CN(Cc2nn(C)c3[nH]c(-c4c(F)cccc4F)c(O)c(=O)c23)C[C@H](C)O1` [Example 197, 6-(2,6-Difluorophenyl)-3-((2,6-dimethylmorpholino)methyl)-5-hydroxy-1-methyl-1H-pyrazolo[3,4-b]pyridin-4(7H)-one]: the inhibition at 1 µM amounted to 100%, the inhibition at 10 µM turned out to be 100% and the IC50 is 100 to 150 nM.

Take `Cn1nc(CO)c2c(=O)c(O)c(-c3ccccc3Cl)[nH]c21` [Example 198, 6-(2-Chlorophenyl)-5-hydroxy-3-(hydroxymethyl)-1-methyl-1H-pyrazolo[3,4-b]pyridin-4(7H)-one]: the inhibition at 1 µM worked out at 87.7%, the inhibition at 10 µM was determined as 86.7% and the IC50 fell in the range of 50 to 100 nM.

For `Cn1nc(CN2CCOCC2)c2c(=O)c(O)c(-c3ccccc3Cl)[nH]c21` [Example 199, 6-(2-Chlorophenyl)-5-hydroxy-1-methyl-3-(morpholinomethyl)-1H-pyrazolo[3,4-b]pyridin-4(7H)-one], the inhibition at 1 µM stood at 86.8%, the inhibition at 10 µM was 93.5% and the IC50 fell in the range of 100 to 150 nM.

For `CCc1nn(CCN2C[C@@H](C)O[C@@H](C)C2)c2[nH]c(-c3c(F)cccc3F)c(O)c(=O)c12` [Example 200, 6-(2,6-Difluorophenyl)-1-(2-((2R,6S)-2,6-dimethylmorpholino)ethyl)-3-ethyl-5-hydroxy-1H-pyrazolo[3,4-b]pyridin-4(7H)-one], the inhibition at 1 µM stood at 91.4%, the inhibition at 10 µM was 90.7% and the IC50 was less than 50 nM.

As for `O=c1c(O)c(-c2c(F)cccc2F)[nH]c2c1c(CN1CCOCC1)nn2C1CC1` [Example 201, 1-Cyclopropyl-6-(2,6-difluorophenyl)-5-hydroxy-3-(morpholinomethyl)-1H-pyrazolo[3,4-b]pyridin-4(7H)-one], the inhibition at 1 µM was 74%, the inhibition at 10 µM is 87% and the IC50 is greater than 150 nM.

Take `CCc1nn(CCN2C[C@@H](C)O[C@@H](C)C2)c2[nH]c(-c3ccccc3Cl)c(O)c(=O)c12` [Example 202, 6-(2-Chlorophenyl)-1-(2-((2R,6S)-2,6-dimethylmorpholino)ethyl)-3-ethyl-5-hydroxy-1H-pyrazolo[3,4-b]pyridin-4(7H)-one]: the inhibition at 1 µM is 82.8%, the inhibition at 10 µM was 78% and the IC50 lay in the range of 100 to 150 nM.

In the case of `CCc1nn(CCO)c2[nH]c(-c3c(F)cccc3F)c(O)c(=O)c12` [Example 203, 6-(2,6-Difluorophenyl)-3-ethyl-5-hydroxy-1-(2-hydroxyethyl)-1H-pyrazolo[3,4-b]pyridin-4(7H)-one], the inhibition at 1 µM worked out at 82.5%, the inhibition at 10 µM is 77.7% and the IC50 was in the range of 50 to 100 nM.

Regarding `O=c1c(O)c(-c2c(F)cccc2F)[nH]c2c1c(C1CCOCC1)nn2-c1ccc(F)cc1` [Example 204, 6-(2,6-Difluorophenyl)-1-(4-fluorophenyl)-5-hydroxy-3-(tetrahydro-2H-pyran-4-yl)-1H-pyrazolo[3,4-b]pyridin-4(7H)-one], the inhibition at 1 µM was 95.2%, the inhibition at 10 µM came to 99.7% and the IC50 fell in the range of 100 to 150 nM.

For `CCc1nn(CCN2CCC(F)(F)CC2)c2[nH]c(-c3c(F)cccc3F)c(O)c(=O)c12` [Example 205, 6-(2,6-Difluorophenyl)-1-(2-(4,4-difluoropiperidin-1-yl)ethyl)-3-ethyl-5-hydroxy-1H-pyrazolo[3,4-b]pyridin-4(7H)-one], the inhibition at 1 µM was 95.9%, the inhibition at 10 µM turned out to be 94.6% and the IC50 fell in the range of 50 to 100 nM.

Take `CCc1nn(CCCN2C[C@@H](C)O[C@@H](C)C2)c2[nH]c(-c3c(F)cccc3F)c(O)c(=O)c12` [Example 206, 6-(2,6-Difluorophenyl)-1-(3-((2R,6S)-2,6-dimethylmorpholino)propyl)-3-ethyl-5-hydroxy-1H-pyrazolo[3,4-b]pyridin-4(7H)-one]: the inhibition at 1 µM worked out at 94.6%, the inhibition at 10 µM was found to be 91.3% and the IC50 was 50 to 100 nM.

For `CCc1nn(CC2CCOCC2)c2[nH]c(-c3c(F)cccc3F)c(O)c(=O)c12` [Example 207, 6-(2,6-Difluorophenyl)-3-ethyl-5-hydroxy-1-((tetrahydro-2H-pyran-4-yl)methyl)-1H-pyrazolo[3,4-b]pyridin-4(7H)-one], the inhibition at 1 µM is 87.8%, the inhibition at 10 µM was determined as 88.2% and the IC50 lay in the range of 50 to 100 nM.
